Measurements taken from PubChem BioAssay AID256 (DTP/NCI, 2004).
Several values for one entry are separate records, joined by “and”; a condition that tells them apart may be missing. Equal values may be shown once. Toxic doses and inconclusive results are not listed.

System: CD2F1 mice, L1210 leukemia ip, survival T/C
Test: NCI In Vivo Anticancer Drug Screen. Data for tumor model L1210 Leukemia (intraperitoneal) in CD2F1 (CDF1) mice
Details: higher = longer survival
How it was run: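 Antitumor effect is scored in animals hosting a serially transplanted tumor. Values compare compound-dosed animals against vehicle-only controls as a simple quotient.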

[1] = endpoint: mean survival time, dose: 100.0 mg/kg/injection, schedule: Q04DX003 (ip), vehicle: saline with Tween-80
[2] = endpoint: mean survival time, dose: 200.0 mg/kg/injection, schedule: Q04DX003 (ip), vehicle: saline with Tween-80
[3] = endpoint: mean survival time, dose: 400.0 mg/kg/injection, schedule: Q04DX003 (ip), vehicle: saline with Tween-80
[4] = endpoint: mean survival time, dose: 50.0 mg/kg/injection, schedule: Q01DX009 (ip), vehicle: Klucel (hydroxypropylcellulose) (HPC)
[5] = endpoint: mean survival time, dose: 100.0 mg/kg/injection, schedule: Q01DX009 (ip), vehicle: Klucel (hydroxypropylcellulose) (HPC)
[6] = endpoint: mean survival time, dose: 100.0 mg/kg/injection, schedule: Q01DX009 (ip), vehicle: saline with Tween-80
[7] = endpoint: mean survival time, dose: 200.0 mg/kg/injection, schedule: Q01DX009 (ip), vehicle: saline with Tween-80
[8] = endpoint: mean survival time, dose: 100.0 mg/kg/injection, schedule: Q01DX001 (ip), vehicle: saline
[9] = endpoint: mean survival time, dose: 200.0 mg/kg/injection, schedule: Q01DX001 (ip), vehicle: saline
[10] = endpoint: mean survival time, dose: 400.0 mg/kg/injection, schedule: Q01DX001 (ip), vehicle: saline
[11] = endpoint: mean survival time, dose: 400.0 mg/kg/injection, schedule: Q01DX009 (ip), vehicle: saline with Tween-80

For `CCOC(=O)CC(=O)c1[nH]c(C)c(C(=O)OCC)c1C`, the T/C [1] was 101 % of control, the T/C [2] was 103 % of control and the T/C [3] was 101 % of control.
With `COc1cc2c(c(OC)c1OC)-c1ccc(SC)c(=O)cc1C(NC(=S)NC1OC(COC(C)=O)C(OC(C)=O)C(OC(C)=O)C1OC(C)=O)CC2` (centres undefined) the T/C [4] was 86 % of control, the T/C [5] was 89 % of control and the T/C (endpoint: mean survival time, dose: 200.0 mg/kg/injection, schedule: Q01DX009 (ip), vehicle: Klucel (hydroxypropylcellulose) (HPC)) was 101 % of control.
`COc1ccc(NC(=O)Oc2cccc(C)c2)cc1` was tested, and the T/C (endpoint: mean survival time, dose: 100.0 mg/kg/injection, schedule: Q04DX002 (ip), vehicle: saline with Tween-80) was 90 % of control, the T/C (endpoint: mean survival time, dose: 200.0 mg/kg/injection, schedule: Q04DX002 (ip), vehicle: saline with Tween-80) was 97 % of control and the T/C (endpoint: mean survival time, dose: 400.0 mg/kg/injection, schedule: Q04DX002 (ip), vehicle: saline with Tween-80) was 93 % of control.
In the case of `C#CC(C)O` (centres undefined), the T/C (endpoint: mean survival time, dose: 25.0 mg/kg/injection, schedule: Q01DX009 (ip), vehicle: saline) is reported as 96 % of control and the T/C (endpoint: mean survival time, dose: 50.0 mg/kg/injection, schedule: Q01DX009 (ip), vehicle: saline) is reported as 89 % of control.
`Cc1ccc2c(ccc(CC(=S)[S-])[n+]2C)c1` was tested, and the T/C (endpoint: mean survival time, dose: 6.25 mg/kg/injection, schedule: Q01DX009 (ip), vehicle: Klucel (hydroxypropylcellulose) (HPC)) was 97 % of control and 107 % of control, the T/C (endpoint: mean survival time, dose: 12.5 mg/kg/injection, schedule: Q01DX009 (ip), vehicle: Klucel (hydroxypropylcellulose) (HPC)) was 94 % of control and 109 % of control and the T/C (endpoint: mean survival time, dose: 25.0 mg/kg/injection, schedule: Q01DX009 (ip), vehicle: Klucel (hydroxypropylcellulose) (HPC)) was 93 % of control. The T/C [4] was 91 % of control and 95 % of control and the T/C [5] was 90 % of control and 96 % of control.
With `Nc1nc2ccc(CN(C=O)c3ccc(C(=O)NC(CCC(=O)O)C(=O)O)cc3)cc2c(=O)[nH]1` (centres undefined) the T/C (endpoint: mean survival time, dose: 6.25 mg/kg/injection, schedule: Q01DX009 (ip), vehicle: water) was 94 % of control, the T/C (endpoint: mean survival time, dose: 12.5 mg/kg/injection, schedule: Q01DX009 (ip), vehicle: water) was 102 % of control and the T/C (endpoint: mean survival time, dose: 25.0 mg/kg/injection, schedule: Q01DX009 (ip), vehicle: water) was 105 % of control. The T/C (endpoint: mean survival time, dose: 50.0 mg/kg/injection, schedule: Q01DX009 (ip), vehicle: water) was 107 % of control, the T/C (endpoint: mean survival time, dose: 100.0 mg/kg/injection, schedule: Q01DX009 (ip), vehicle: water) was 119 % of control and the T/C (endpoint: mean survival time, dose: 200.0 mg/kg/injection, schedule: Q01DX009 (ip), vehicle: water) was 107 % of control. For the same molecule, the T/C (endpoint: mean survival time, dose: 400.0 mg/kg/injection, schedule: Q01DX009 (ip), vehicle: water) was 100 % of control.
`CC(C)C1CCC2=C(CCC3C(C)(C(=O)O)CCCC23C)C1` (centres undefined) was tested, and the T/C [1] was 95 % of control, the T/C [2] was 88 % of control and the T/C [3] was 89 % of control.
For `COc1c(OC(C)=O)ccc(/C=C2\COC(C)=N2)c1[N+](=O)[O-]`, the T/C [1] was 96 % of control, the T/C [2] was 102 % of control and the T/C [3] was 92 % of control.
In the case of `NCc1ccc(OCc2nc(N)nc(N)c2-c2ccc(Cl)c(Cl)c2)cc1`, the T/C (endpoint: mean survival time, dose: 100.0 mg/kg/injection, schedule: Q01DX001 (ip), vehicle: saline with Tween-80) is reported as 92 % of control and the T/C (endpoint: mean survival time, dose: 200.0 mg/kg/injection, schedule: Q01DX001 (ip), vehicle: saline with Tween-80) is reported as 91 % of control.
With `CN1CCN(CN2C(=O)C3C4C=CC(C3C2=O)C2C3C(=O)N(CN5CCN(C)CC5)C(=O)C3C42)CC1` (centres undefined) the T/C (endpoint: median survival time, dose: 7.2 mg/kg/injection, schedule: Q03HX027 (ip), vehicle: water) was 106 % of control, the T/C (endpoint: median survival time, dose: 8.3 mg/kg/injection, schedule: Q03HX027 (ip), vehicle: water) was 104 % of control and the T/C (endpoint: median survival time, dose: 12.0 mg/kg/injection, schedule: Q03HX027 (ip), vehicle: water) was 114 % of control. For the same molecule, the T/C (endpoint: median survival time, dose: 16.1 mg/kg/injection, schedule: Q01DX009 (ip), vehicle: water) was 108 % of control, the T/C (endpoint: median survival time, dose: 24.8 mg/kg/injection, schedule: Q01DX009 (ip), vehicle: water) was 102 % of control and 105 % of control and 109 % of control and the T/C (endpoint: median survival time, dose: 26.8 mg/kg/injection, schedule: Q01DX009 (ip), vehicle: water) was 105 % of control. For the same molecule, the T/C (endpoint: median survival time, dose: 33.4 mg/kg/injection, schedule: Q03HX027 (ip), vehicle: water) was 172 % of control, the T/C (endpoint: median survival time, dose: 38.4 mg/kg/injection, schedule: Q03HX027 (ip), vehicle: water) was 114 % of control and the T/C (endpoint: median survival time, dose: 41.3 mg/kg/injection, schedule: Q01DX009 (ip), vehicle: water) was 124 % of control. For the same molecule, the T/C (endpoint: median survival time, dose: 44.6 mg/kg/injection, schedule: Q01DX009 (ip), vehicle: water) was 152 % of control, the T/C (endpoint: median survival time, dose: 55.7 mg/kg/injection, schedule: Q03HX027 (ip), vehicle: water) was 103 % of control and the T/C (endpoint: median survival time, dose: 68.8 mg/kg/injection, schedule: Q01DX009 (ip), vehicle: water) was 178 % of control and 183 % of control and 219 % of control. For the same molecule, the T/C (endpoint: median survival time, dose: 74.4 mg/kg/injection, schedule: Q01DX009 (ip), vehicle: water) was 255 % of control and the T/C (endpoint: median survival time, dose: 114.7 mg/kg/injection, schedule: Q01DX009 (ip), vehicle: water) was 210 % of control and 243 % of control and 103 % of control.
`CO[C@@]12[C@@H]3N[C@@H]3CN1C1=C(C(=O)C(NCCN(C)C)=C(C)C1=O)[C@@H]2COC(N)=O` was tested, and the T/C (endpoint: mean survival time, dose: 1.5 mg/kg/injection, schedule: Q01DX001 (ip), vehicle: water) was 106 % of control, the T/C (endpoint: mean survival time, dose: 3.0 mg/kg/injection, schedule: Q01DX001 (ip), vehicle: distilled water + Tween-80) was 116 % of control and the T/C (endpoint: mean survival time, dose: 3.0 mg/kg/injection, schedule: Q01DX001 (ip), vehicle: water) was 106 % of control. The T/C (endpoint: mean survival time, dose: 6.0 mg/kg/injection, schedule: Q01DX001 (ip), vehicle: water) was 116 % of control, the T/C (endpoint: mean survival time, dose: 24.0 mg/kg/injection, schedule: Q01DX001 (ip), vehicle: distilled water + Tween-80) was 96 % of control and the T/C (endpoint: mean survival time, dose: 24.0 mg/kg/injection, schedule: Q01DX001 (ip), vehicle: water) was 93 % of control.
For `COc1cc(/C=N\N=C\c2ccc(O)c(OC)c2)ccc1O`, the T/C [6] was 98 % of control and the T/C [7] was 96 % of control.
For `O=C(O)CCC(=O)c1ccc([N+](=O)[O-])cc1`, the T/C [8] was 101 % of control, the T/C [9] was 97 % of control and the T/C [10] was 97 % of control.
In the case of `O=C(CCc1ccc(O)cc1)c1c(O)cc(O)cc1OC1OC(CO)C(O)C(O)C1O` (centres undefined), the T/C [8] is reported as 102 % of control, the T/C [9] is reported as 98 % of control and the T/C [10] is reported as 104 % of control.
In the case of `O=C(Nc1ccc(Cl)c(Cl)c1)c1cc(Cl)ccc1O`, the T/C [6] is reported as 102 % of control, the T/C [7] is reported as 100 % of control and the T/C [11] is reported as 105 % of control.
With `O=[N+]([O-])c1ccc(/C=C/C=C/C2(CCl)OCCO2)cc1` the T/C (endpoint: mean survival time, dose: 100.0 mg/kg/injection, schedule: Q01DX001 (ip), vehicle: Klucel (hydroxypropylcellulose) (HPC)) was 100 % of control, the T/C (endpoint: mean survival time, dose: 200.0 mg/kg/injection, schedule: Q01DX001 (ip), vehicle: Klucel (hydroxypropylcellulose) (HPC)) was 112 % of control and the T/C (endpoint: mean survival time, dose: 400.0 mg/kg/injection, schedule: Q01DX001 (ip), vehicle: Klucel (hydroxypropylcellulose) (HPC)) was 100 % of control.
With `C/C=C(\C)C(C)O` (centres undefined) the T/C (endpoint: mean survival time, dose: 50.0 mg/kg/injection, schedule: Q01DX005 (ip), vehicle: saline) was 87 % of control, the T/C (endpoint: mean survival time, dose: 50.0 mg/kg/injection, schedule: Q01DX009 (ip), vehicle: saline with Tween-80) was 98 % of control and the T/C (endpoint: mean survival time, dose: 50.0 mg/kg/injection, schedule: Q04DX002 (ip), vehicle: saline + alcohol) was 92 % of control. For the same molecule, the T/C (endpoint: mean survival time, dose: 100.0 mg/kg/injection, schedule: Q01DX005 (ip), vehicle: saline) was 102 % of control, the T/C [6] was 98 % of control and the T/C (endpoint: mean survival time, dose: 100.0 mg/kg/injection, schedule: Q04DX002 (ip), vehicle: saline + alcohol) was 103 % of control. The T/C (endpoint: mean survival time, dose: 200.0 mg/kg/injection, schedule: Q01DX005 (ip), vehicle: saline) was 94 % of control, the T/C [7] was 95 % of control and the T/C (endpoint: mean survival time, dose: 200.0 mg/kg/injection, schedule: Q04DX002 (ip), vehicle: saline + alcohol) was 101 % of control. For the same molecule, the T/C (endpoint: mean survival time, dose: 400.0 mg/kg/injection, schedule: Q01DX005 (ip), vehicle: saline) was 94 % of control, the T/C [11] was 102 % of control and the T/C (endpoint: mean survival time, dose: 400.0 mg/kg/injection, schedule: Q04DX002 (ip), vehicle: saline + alcohol) was 103 % of control.
`CCN(CC)CCN(C)C(O)(C(=O)c1ccccc1)C1CCCCC1` (centres undefined) was tested, and the T/C (endpoint: mean survival time, dose: 75.0 mg/kg/injection, schedule: Q01DX001 (ip), vehicle: saline) was 105 % of control, the T/C (endpoint: mean survival time, dose: 150.0 mg/kg/injection, schedule: Q01DX001 (ip), vehicle: saline) was 102 % of control and the T/C (endpoint: mean survival time, dose: 300.0 mg/kg/injection, schedule: Q01DX001 (ip), vehicle: saline) was 100 % of control.
`CSc1ccc(NC(=O)CCl)cc1` was tested, and the T/C [1] was 91 % of control.
With `Cc1ccc(S(=O)(=O)OC2C3OCC(O3)C(O)C2O)cc1` (centres undefined) the T/C [1] was 97 % of control, the T/C [2] was 94 % of control and the T/C [3] was 94 % of control.
